Columns and labels:
Experiment in all cases: Test B preemergence/postemergence greenhouse plant response rating 0 to 10
barley = format: in vivo, Hordeum vulgare; details: for Plant response rating, Barley: 0 to 10 scale
How it was run: (§1)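 Planted seeds are treated preemergence with compound dissolved in a non-phytotoxic solvent, while postemergence applications go onto plants of two to eighteen cm. Plants stay in the greenhouse twelve to sixteen days and are then rated visually relative to controls.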

blackgrass = format: in vivo, Alopecurus myosuroides; details: for Plant response rating, Blackgrass: 0 to 10 scale
How it was run: as §1

cheatgrass = format: in vivo, Bromus secalinus; details: for Plant response rating, Cheatgrass: 0 to 10 scale
How it was run: as §1

crabgrass = format: in vivo, Digitaria spp.; details: for Plant response rating, Crabgrass: 0 to 10 scale
How it was run: as §1

giant foxtail = format: in vivo, Setaria faberii; details: 0 to 10 scale
How it was run: as §1

lambsquarters = format: in vivo, Chenopodium album; details: 0 to 10 scale
How it was run: as §1

rape = format: in vivo, Brassica napus; details: 0 to 10 scale
How it was run: as §1

soybean = format: in vivo, Glycine max; details: 0 to 10 scale
How it was run: as §1

velvetleaf = format: in vivo, Abutilon theophrasti; details: 0 to 10 scale
How it was run: as §1

purple nutsedge = format: in vivo, Cyperus rotundus; details: 0 to 10 scale
How it was run: as §1

`Clc1ccc(-c2nc3n(c2Cl)CCC=C3)c(Cl)c1` [Compound 1] was tested, and the “Plant response rating (0 to 10 scale), Barley” value (barley; POSTEMERGENCE, Rate 50 g/ha) was 3, the “Plant response rating, Barley” value (barley; POSTEMERGENCE, Rate 200 g/ha) was 3 and the “Plant response rating, Barley” value (barley; PREEMERGENCE, Rate 50 g/ha) was 0. The “Plant response rating, Barley” value (barley; Rate 200 g/ha, PREEMERGENCE) was 0, the “Plant response rating (0 to 10 scale), Blackgrass” value (blackgrass; POSTEMERGENCE, Rate 50 g/ha) was 0 and the “Plant response rating, Blackgrass” value (blackgrass; POSTEMERGENCE, Rate 200 g/ha) was 1. For the same molecule, the “Plant response rating, Blackgrass” value (blackgrass; PREEMERGENCE, Rate 50 g/ha) was 0, the “Plant response rating, Blackgrass” value (blackgrass; Rate 200 g/ha, PREEMERGENCE) was 0 and the “Plant response rating (0 to 10 scale), Cheatgrass” value (cheatgrass; POSTEMERGENCE, Rate 50 g/ha) was 2. For the same molecule, the “Plant response rating, Cheatgrass” value (cheatgrass; POSTEMERGENCE, Rate 200 g/ha) was 2, the “Plant response rating, Cheatgrass” value (cheatgrass; PREEMERGENCE, Rate 50 g/ha) was 0 and the “Plant response rating, Cheatgrass” value (cheatgrass; Rate 200 g/ha, PREEMERGENCE) was 0. The “Plant response rating (0 to 10 scale), Crabgrass” value (crabgrass; POSTEMERGENCE, Rate 50 g/ha) was 2, the “Plant response rating, Crabgrass” value (crabgrass; POSTEMERGENCE, Rate 200 g/ha) was 3 and the “Plant response rating, Crabgrass” value (crabgrass; PREEMERGENCE, Rate 50 g/ha) was 0. For the same molecule, the “Plant response rating, Crabgrass” value (crabgrass; Rate 200 g/ha, PREEMERGENCE) was 0, the “Plant response rating, Giant foxtail” value (giant foxtail; POSTEMERGENCE, Rate 50 g/ha) was 3 and the “Plant response rating, Giant foxtail” value (giant foxtail; POSTEMERGENCE, Rate 200 g/ha) was 3. The “Plant response rating, Giant foxtail” value (giant foxtail; PREEMERGENCE, Rate 50 g/ha) was 0, the “Plant response rating, Giant foxtail” value (giant foxtail; Rate 200 g/ha, PREEMERGENCE) was 0 and the “Plant response rating, Lambsquarter” value (lambsquarters; POSTEMERGENCE, Rate 50 g/ha) was 4. The “Plant response rating, Lambsquarter” value (lambsquarters; POSTEMERGENCE, Rate 200 g/ha) was 7, the “Plant response rating, Lambsquarter” value (lambsquarters; PREEMERGENCE, Rate 50 g/ha) was 0 and the “Plant response rating, Lambsquarter” value (lambsquarters; Rate 200 g/ha, PREEMERGENCE) was 0. The “Plant response rating, Rape” value (rape; POSTEMERGENCE, Rate 50 g/ha) was 1, the “Plant response rating, Rape” value (rape; POSTEMERGENCE, Rate 200 g/ha) was 3 and the “Plant response rating, Rape” value (rape; PREEMERGENCE, Rate 50 g/ha) was 0. The “Plant response rating, Rape” value (rape; Rate 200 g/ha, PREEMERGENCE) was 0, the “Plant response rating, Soybean” value (soybean; POSTEMERGENCE, Rate 50 g/ha) was 4 and the “Plant response rating, Soybean” value (soybean; POSTEMERGENCE, Rate 200 g/ha) was 4. The “Plant response rating, Soybean” value (soybean; PREEMERGENCE, Rate 50 g/ha) was 0, the “Plant response rating, Soybean” value (soybean; Rate 200 g/ha, PREEMERGENCE) was 0 and the “Plant response rating, Velvetleaf” value (velvetleaf; POSTEMERGENCE, Rate 50 g/ha) was 3. The “Plant response rating, Velvetleaf” value (velvetleaf; POSTEMERGENCE, Rate 200 g/ha) was 8, the “Plant response rating, Velvetleaf” value (velvetleaf; PREEMERGENCE, Rate 50 g/ha) was 0 and the “Plant response rating, Velvetleaf” value (velvetleaf; Rate 200 g/ha, PREEMERGENCE) was 0. The “Plant response rating, Nutsedge” value (purple nutsedge; POSTEMERGENCE, Rate 50 g/ha) was 0, the “Plant response rating, Nutsedge” value (purple nutsedge; POSTEMERGENCE, Rate 200 g/ha) was 0 and the “Plant response rating, Nutsedge” value (purple nutsedge; Rate 200 g/ha, PREEMERGENCE) was 0.

From patent US6358885B1, “Substituted phenylheterocyclic herbicides” (Mississippi State University, priority 1992, dated 2002)
